# Legend:
# Assay type in all cases: cell-based
# [1] = system: LPA-induced cation conductance in human SS red cells; experiment: On-cell patch clamp of LPA-induced cation conductance; details: 1 μM in the pipette
# Text: (§1) On-cell patch clamp: Borosilicate pipettes (Corning 7052) pulled with a Narishige two stage puller or a Sutter P97 puller and fire-polished to resistances of 10-20 MΩ were front-filled and then backfilled. Symmetric bath and pipette solutions for studies of seal resistance stability during reversibility tests of the deoxygenation-activated conductance in SAD mouse red cells were (in mM) 140 NaCl, 4 KCl, 1 CaCl2, 1 MgCl2, 10 Na HEPES, pH 7.4. These conditions yielded tight seals in 13% of patch attempts on SAD cells. For study of deoxygenation-induced monovalent cation permeation in the absence of bath Ca^2+ and Mg^2+ recorded in SAD and Berkeley mouse cells and in human cells, symmetric bath and pipette solutions contained (in mM) 150 Na methanesulfonate, 10 Na EDTA, and 10 Na HEPES, pH 7.4. These conditions yielded tight seals in 16% of patch attempts on SAD mouse red cells, 26% of attempts on Berkeley mouse cells, and 30% of attempts on human SS cells. For study of Ca^2+ permeation in human SS cells, bath and pipette solutions contained (in mM) 100 CaCl2, 10 Na HEPES, pH 7.4. These conditions yielded tights seals on 44% of attempts. For all conditions tested in human red cells, 70% of tight seals were sustained through the solution change accompanying deoxygenation to allow recording of current activity.
# (§2) On-cell patch currents were recorded with the Axopatch 1-D amplifier (Axon Instruments/Molecular Devices, Sunnyvale, Calif.). Holding potential was −Vp=−50 mV (expressed as the negative of the pipette potential (e.g., equivalent to the intracellular potential with respect to the pipette). To determine current-voltage relationships (I-V curves) in Fetchex or Clampex (PCLAMP, Axon Instruments), the realtime control window in gap-free mode was used to record current traces of 10-30 sec duration at holding potentials ranging from −100 to +100 mV, in 25 mV increments. The bath reference electrode was a silver chloride wire with a 3 M KCl agar bridge. Data was filtered at 500 Hz, digitized at 2 kHz by Clampex, and analyzed offline by Fetchan and Pstat or by Clampfit subroutines of PCLAMP. Holding potentials in on-cell patch experiments were expressed as −Vp, the negative of the pipette potential.
# Deoxygenation-activated flickering cation conductance observed in human SS cells contrasted with the prolonged channel openings produced by 5 μM LPA (FIG. 10A). In SS cells, LPA increased NPo […], from 0.04±0.03 to 0.82±0.18 (n=8, p<0.001; Na methanesulfonate in bath and pipette, −Vp=−50 mV; FIG. 10B). LPA-induced cation conductance was 96% inhibited by 100 uM dipyridamole in the pipette, and 97% inhibited by 1 μM GsMTx-4 in the pipette (both n=4).
# [2] = system: deoxygenation-activated Ca2+-permeable conductance in human SS cells; experiment: On-cell patch clamp of deoxygenation-activated Ca2+-permeable conductance, CaCl2 in pipette; details: 1 μM in the pipette; -Vp=-25 mV
# Method: Blood cell preparation: Human SS and AA blood was obtained under IRB-approved protocols of Children's Hospital and Beth Israel Deaconess Medical Center. After buffy coat removal and 5 washes in standard human red cell wash solution containing (in mM) 150 choline Cl, 1 MgCl, and 10 Tris-MOPS, pH 7.4, red cells were resuspended in storage solution containing (in mM) 145 KCl, 15 NaCl, and 10 HEPES, pH 7.4, then kept at 4° C. until used. […]
# Mouse red cells allowed to settle on coverslips were superfused 15 min with bath solution containing (in mM) either 150 mM Na methanesulfonate, 10 Na EDTA, and 10 Na HEPES, pH 7.4; or 140 NaCl, 4 KCl, 1CaCl2, 1 MgCl2, 10 Na HEPES, pH 7.4. […] The resulting bath pO2 was 18 mm Hg as measured by oxygen electrode (WPI). […]
# On-cell patch clamp: Borosilicate pipettes (Corning 7052) pulled with a Narishige two stage puller or a Sutter P97 puller and fire-polished to resistances of 10-20 MΩ were front-filled and then backfilled. […] For study of deoxygenation-induced monovalent cation permeation in the absence of bath Ca^2+ and Mg^2+ recorded in SAD and Berkeley mouse cells and in human cells, symmetric bath and pipette solutions contained (in mM) 150 Na methanesulfonate, 10 Na EDTA, and 10 Na HEPES, pH 7.4. […]
# On-cell patch currents were recorded with the Axopatch 1-D amplifier (Axon Instruments/Molecular Devices, Sunnyvale, Calif.). […]
# neurite = experiment: Neurite initiation and neurite length
# Text: The peptide GsMTx4 of the present invention can be prepared for pharmaceutical use by incorporation with a pharmaceutically acceptable carrier or diluent. The peptide can be formulated into tablets, capsules, caplets and the like. Suitable carriers for tablets include calcium carbonate, starch, lactose, talc, magnesium stearate and gum acacia. The peptide can also be formulated for oral, parenteral or intravenous administration in aqueous solutions, aqueous alcohol, glycol or oil solutions or emulsions. The peptide can also be formulated for inhaling by encapsulating to facilitate alveolar absorption as has been done for insulin (Inhale Therapeutic Systems, San Carlos, Calif., inhale.com). Pharmaceutical compositions suitable for such routes of administration are well known in the art. For example, suitable forms and compositions of pharmaceutical preparations can be found in Remington's Pharmaceutical Science, 1980, 15^thed. Mack Publishing Co., Easton, Pa. Thus, the peptide GsMTx4 can be administered orally, subcutaneously, parenterally, intravenously, intramuscularly or intranasally. The peptide may also be applied to medical devices that will come into contact blood. Both L and D enantiomers of GsMTx4's and its variants can be used for the present invention. We have previously shown that both L- and D-GsMTx4 block mechanosensitive channel (MSC) activity. Although, we have noted differences in the effects of these enantiomers, both forms are effective. For example, we have observed that the ability of the mirror image form (D-enantiomer) to inhibit mechanically activated ion channels is similar to the wild type peptide (L-form) (Suchyna et al 2004). […] Thus, both L and the D forms can be used in the present invention.
# [3] = system: deoxygenation-activated cation conductance in human SS red cells; experiment: On-cell patch clamp of deoxygenation-activated cation conductance, symmetric Na methanesulfonate; details: on-cell patch; for effect on deoxygenation-induced increase in cation conductance: 1 μM in the pipette / outside of membrane
# Method: Blood cell preparation: Human SS and AA blood was obtained under IRB-approved protocols of Children's Hospital and Beth Israel Deaconess Medical Center. After buffy coat removal and 5 washes in standard human red cell wash solution containing (in mM) 150 choline Cl, 1 MgCl, and 10 Tris-MOPS, pH 7.4, red cells were resuspended in storage solution containing (in mM) 145 KCl, 15 NaCl, and 10 HEPES, pH 7.4, then kept at 4° C. until used. Human red cells allowed to settle on coverslips were mounted on an inverted microscope in a 200 μl open chamber (WPI, Sarasota, Fla.) and superfused 15 min at room temperature by bath solution containing (in mM) 150 Na methanesulfonate, 10 Na EDTA, and 10 Na HEPES, pH 7.4.
# Mouse red cells allowed to settle on coverslips were superfused 15 min with bath solution containing (in mM) either 150 mM Na methanesulfonate, 10 Na EDTA, and 10 Na HEPES, pH 7.4; or 140 NaCl, 4 KCl, 1CaCl2, 1 MgCl2, 10 Na HEPES, pH 7.4. Deoxygenation was achieved by switching superfusate to the same solution gassed ≧30 min prior to the experiment with 100% N2, and by flushing of the perfusion chamber with N2 during the deoxygenation period. The resulting bath pO2 was 18 mm Hg as measured by oxygen electrode (WPI). In the experiments of FIG. 1, deoxygenated cells were subsequently re-oxygenated by exposure to the same superfusate equilibrated with room air.
# Washed human or mouse red cells in solution containing (in mM) 140 NaCl, 5 KCl, 1 CaCl2, 1 MgCl2, 10 Na HEPES, pH 7.4 were exposed for 1 hr on a rotary platform in a 37° C. incubator to 25 ppm carbon monoxide (CO) in 5% CO2. CO-exposed cells were then subjected to patch clamp or to calcium imaging experiments within 60 min after return to room air, using the solutions indicated.
# as §1, §2
substance,measurement,setting,value
Grammastola spatulata mechanotoxin 4 (GCLEFWWKCNPNDDKCCRPKLKCSKLFKLCNFSF; listed as Grammastola spatulata) [GsMTx-4],effect on LPA-induced increase in NPo,[1],prevented
same,inhibition of LPA-induced cation conductance,"[1]; 5 μM LPA, n=4",97%
same,"effect on deoxygenation-induced increase in NPo, Ca2+ in the pipette",[2],prevented
same,effect on neurite length,neurite,no significant effect
same,neurite initiation,neurite,stimulate
same,effect on deoxygenation-induced increase in cation conductance,[3],prevented
same,effect on deoxygenation-induced increase in cation conductance,[3]; listed as GsMTx4,completely inhibit
same,NPo after deoxygenation,"[3]; 1 μM in the pipette, n=6",0.003±0.003
